Assay results taken from patent US10751396B2, “Early hyperlipidemia promotes endothelial activation via a caspase-1-sirtuin 1 pathway” (Temple University—Of The Commonwealth System of Higher …, priority 2015, dated 2020).

What was measured:
Format in all cases: cell-based, human
[1] = tested on: VEGFR-2; test: VEGFR-2 expression in LPC-treated HAECs by flow cytometry; conditions: LPC (30 μM) 6 h; caspase-1 inhibitor or Sirt-1 activator 10 μM pretreatment where named
Procedure: FIG. 17, comprising FIG. 17A through FIG. 17D, depicts experimental results showing inhibition of caspase-1 activation and activation of Sirt-1 increase VEGFR-2 expression. FIG. 17A depicts experiments showing caspase-1 depletion increases VEGFR-2 expression. A microarray data-mining analysis was performed by analyzing the indicated microarray dataset deposited in the National Institutes of Health NCBI-Geo-profile database. The gene expression value was determined based on the relative threshold cycle on the database. […] In addition, depletion of caspase-1 slightly increases the expressions of the caspase-1-cleaving substrates cytokines IL-1β and IL-18. […] FIG. 17B depicts caspase-1 inhibition and Sirt-1 activation increase the expression of VEGFR-2 after LPC treatment in HAECs. HAECs pretreated with the caspase-1 inhibitor (10 μM) and Sirt-1 activator (10 μM) and then treated with LPC (30 μM) for 6 h have an increased expression of VEGFR-2. FIG. 17C depicts three cell size gates were established, small, medium, and large according to FSC (y axis); and VEGFR-2 expression (x axis) was measured in those gated cells to analyze differential VEGFR-2 expressions according to the cell size after treatments with LPC (30 μM), caspase-1 inhibitor (10 μm), and Sirt-1 activator (10 μm) for 6 h. […] FIG. 17D depicts bar graphs showing the quantitation data of VEGFR-2 expressions. *, p<0.05.
(§1) All flow cytometric data were analyzed by using the FlowJo software (Tree Star, Ashland, Oreg.). The uncompensated data were collected from the flow cytometer (either FACSCalibur flow cytometer or LSRII flow cytometer; BD Biosciences). Forward and side scatter gates were used to select live cell populations from clumps and debris. The positive gating was determined by its matched IgG control, and single staining was used to determine the compensation parameter. Different gates were established to analyze the data according to cell size as described in our figures.

[2] = tested on: caspase-1; test: Caspase-1 activity assay (FAM-YVAD-FMK, flow cytometry) in HAECs; conditions: 6 h, oxLDL (100 μM), LPA (30 μM), LPC (30 μM)
Procedure: (§2) Active caspase-1 level was determined with APO LOGIX kit (Cell Tech., Mountain View, Calif.). The kit contains a carboxyfluorescein (FAM) [Excitation/Emission (nm):490/520]-labeled peptide fluoromethyl ketone (FMK) caspase-1 inhibitor (FAM-YVAD-FMK), which irreversibly binds to active caspase-1. All procedures were performed according to the manufacturer's instruction. Briefly, HAECs (≤passage 9) were cultured in 6-well plates and serum starved overnight to quiescent the cells before treatment. Next day, HAECs were treated with indicated stimuli for 6 hr. Cells were then digested by trypsin-EDTA and suspended at 1×10^6 cells/ml. 150 μl of cell suspension were incubated at 37° C. with 1× FAM-YVAD-FMK for 1 hour then washed with 1× washing buffer. Unfixed caspase-1 stained cells were then incubated with 7-aminoactinomycin D (7-AAD; cell membrane integrity marker) (BD Pharmingen, San Diego, Calif.) for no more than 10 min before analysis. The Calibur flow cytometer (BD Biosciences, San Jose, Calif.) was used to determine caspase-1 active (Caspase-1^+) and 7-AAD^+ cells. Data were analyzed with the FlowJo software (Tree Star, Ashland, Oreg.).
Active caspase-1 levels were determined with an APO LOGIX kit (Cell Technology, Mountain View, Calif.). The kit contained a carboxyfluorescein (FAM) (excitation/emission (nm): 490/520)-labeled peptide fluoromethyl ketone (FMK) caspase-1 inhibitor (FAM-YVAD-FMK), which irreversibly binds to active caspase-1. The procedures were performed according to the manufacturer's instructions. HAECs were cultured in 6-well dishes and serum-starved overnight to ensure quiescence of the cells before treatment. The next day, HAECs were treated with the indicated stimuli for 6 h. Cells were harvested and suspended at 1×10^6 cells/ml. The cell suspension (150 μl) was incubated in 37° C. with 1× FAM-YVAD-FMK for 1 h. After being washed with 1× washing buffer, the cells were fixed with fixative buffer and stored in 4° C. for up to 24 h. To determine the cell membrane integrity, the unfixed cells were stained with 7-AAD (Pharmingen) (0.25 μg/test) and incubated for no more than 10 min before analysis.
as §1

[3] = tested on: HAECs; test: Caspase-1/7-AAD co-staining for pyroptosis in HAECs
Procedure: FIG. 7, comprising FIG. 7A through FIG. 7D, depicts experimental results showing Oxidized low-density lipoprotein (oxLDL) and its components induce caspase-1 (casp-1) activation in human aortic endothelial cells (HAECs) via a reactive oxygen species (ROS)-mediated p-athway. FIG. 7A depicts pyroptotic cell death in HAECs caused by activation of casp-1 induced by oxLDL and its components. HAECs were cultured and treated with low-density lipoprotein (LDL; 100 μg/mL), oxLDL (100 μg/mL), oxLDL-derivatives lysophosphatidic acid (LPA, 100 μM), or lysophosphatidylcholine (LPC, 15 μM) as indicated for 6 hours. Casp-1 activity was determined by a commercial kit, and 7-aminoactinomycin D (7-AAD) fluorescence dye was used to determine the cell membrane integrity. Casp-1^+/7-AAD^+ cells were gated as pyrototic cells (Q3), casp-1^+ single positive cells (Q2) were gated as inflammatory cells, and 7-AAD^+ single positive cells (Q4) were gated as necrotic cells. FIG. 7B depicts ROS levels in pyroptotic cells. ROS levels were determined by dihydroethidium (DHE) fluorescence dye staining, and the mean fluorescence intensity (MFI) of DHE^+ cell fraction was determined. […] Allopurinol (1 mmol/L) and Apocynin (100 μM) were added 1 hour before oxLDL treatment. HAECs were then treated with oxLDL (100 μg/mL) for 6 hours and stained for caspase-1 activity. FIG. 7D depicts mRNA upregulation of inflammasome components, including NLRP1 (Nod-like receptor protein 1), NLRP3 (Nod-like receptor 3), PYCARD (or ASC, inflammasome adaptor apoptosis-associated speck-like protein containing a CARD), caspase-1, and IL-1β (interleukin-1β) in HAECs treated with oxLDL. Data are expressed as mean±SE. *P<0.05, changes with statistical significance.
as §2
Active caspase-1 levels were determined with an APO LOGIX kit (Cell Technology, Mountain View, Calif.). The kit contained a carboxyfluorescein (FAM) (excitation/emission (nm): 490/520)-labeled peptide fluoromethyl ketone (FMK) caspase-1 inhibitor (FAM-YVAD-FMK), which irreversibly binds to active caspase-1. The procedures were performed according to the manufacturer's instructions. HAECs were cultured in 6-well dishes and serum-starved overnight to ensure quiescence of the cells before treatment. The next day, HAECs were treated with the indicated stimuli for 6 h. Cells were harvested and suspended at 1×10^6 cells/ml. […]

[4] = tested on: HAECs; test: Tube formation assay in Matrigel; conditions: LPC (30 μm) with or without caspase-1 inhibitor (10 μm), Matrigel 16 h
Procedure: FIG. 18, comprising FIG. 18A and FIG. 18B, depicts experimental results showing tube formation, as an in vitro model of angiogenesis, is improved after caspase-1 inhibition in LPC-treated cells. FIG. 18A depicts experiments where HAECs were treated with LPC (30 μm) and caspase-1 inhibitor (10 μm) for 6 h. After the treatment, the cells were incubated in the Matrigel for 16 h for the analysis of tube formation. FIG. 18B depicts bar graph showing the increases of total master segment lengths after the inhibition of caspase-1 in LPC-treated HAECs.*, p<0.05.
The Matrigel matrix (Bedford, Mass.) was used to coat the 96-well plates. Human aortic endothelial cells were cultured. The cells were treated with caspase-1 inhibitor (Anaspec, Fremont, Calif.) and proatherogenic stimulus LPC for 24 h. HAECs were harvested and suspended. Cell concentration was determined and added to each Matrigel-coated well and incubated for 16-18 h. Images were collected using the inverted microscope.

In the case of `CCCCCCCCCCCCCCCC(=O)OC[C@@H](O)COP(=O)([O-])OCC[N+](C)(C)C` [LPC, 1-hexadecanoyl-sn-glycerol-3-phosphorylcholine], the “VEGFR-2 expression in the larger size of HAECs” value [1] is reported as 34.3%, the “VEGFR-2 expression in the medium size of HAECs” value [1] is reported as 22.1% and the “VEGFR-2 expression in the smaller size of HAECs” value [1] is reported as 11.3%. For the same compound, the “caspase-1 activation in larger size of HAECs” value ([2]; large FSC gate) was 52.8%, the “caspase-1 activation in smaller size of HAECs” value ([2]; small FSC gate) was 38.2% and the “induction of inflammation, pyroptosis and necrosis (caspase-1/7-AAD gating)” value ([3]; HAECs, 6-hour stimulation, oxLDL 100 μg/mL, LPA 100 μM, LPC 15 μM) was “induced inflammation, inflammatory cell death (pyroptosis), and necrosis”. The “7-AAD+ pyroptosis in large size of caspase-1(+) HAECs” value ([3]; LPC-treated HAECs) was 9.93%, the “7-AAD+ pyroptosis in medium size of caspase-1(+) HAECs” value ([3]; LPC-treated HAECs) was 20.17% and the “7-AAD+ pyroptosis in smaller size of caspase-1(+) HAECs” value ([3]; LPC-treated HAECs) was 38.77%. For the same compound, the “total master segment length of tube formation” value [4] was 317 μm.
